3 molecules from patent US6365616B1, “Methimazole derivatives and tautomeric cyclic thiones to treat autoimmune diseases” (Sentron Medical, Inc., priority 1998, dated 2002) can be followed below.

The test relates to NOD mice. The test can be described thus: Prevention of glucosuria and diabetes in female NOD mice. The test is classed as in vivo, mouse. The following applies: 5-phenylmethimazole at a fifth the MMI concentration. From the text:
Female NOD mice were also obtained from Jackson Labs, along with control mice from which the strain was developed (Makino et al., Exp. Anim. 29:1-13 (1980); Wicker, L. S., et al., Diabetes 35:855-860 (1986)). Animals showing urine Tes-Tape positivity greater than 1 + were considered positive and to have diabetes (Wicker, L. S., et al., ibid (1986)). At 8-16 weeks, […] of NOD mice develop glucosuria and diabetes according to the literature (Wicker, L. S., et al., ibid (1986)).
Table 20 presents results of the ability of Female NOD mice (5 animals were in each group) to develop glucosuria and diabetes when treated with MMI and compound 10 (5-phenylmethimazole) at a fifth the MMI concentration, by comparison to no treatment or treatment with 2-mercaptoimidazole. Mice were from Jackson Labs in this experiment. Animals showing urine Tes-Tape positivity greater than 1+ were considered positive and to have diabetes.
Compound 10 and MMI are therefore effective in preventing diabetes in the NOD mouse example of diabetes.

For `Cn1ccnc1S` [Compound 1, 1-Methylimidazole-2-thiol], the “development of glucosuria and diabetes by 12 weeks” value is “prevented glucosuria”.
The same measure for `Sc1ncc[nH]1` [Compound 3, 2-Mercaptoimidazole]: “developed diabetes”; for `Cn1c(-c2ccccc2)cnc1S` [Compound 10, 5-Phenylmethimazole]: “prevented glucosuria”.
